One test concerns the target EED (1-441)-His protein (Homo sapiens (Human), UniProt O75530). Description: EED-H3K27Me3 peptide competition binding assay by AlphaScreen. The settings on record: read-out: (a) IC50 EED Alphascreen binding Qualified. From the text:
EED-H3K27Me3 peptide competition binding assay by AlphaScreen (α-screen)
In general terms: In Alpha technology, singlet oxygen from a donor bead excites a nearby acceptor bead.

The target of test [1] is wild type PRC2 (wtPRC2) complex (Homo sapiens (Human), UniProt O75530). Description: EED LC-MS assay. In kind it is biochemical. The settings on record: read-out: (b) IC50 EED LC-MS Qualified. As to the method:
A 6 μL solution of 3 μM of the peptide substrate H3K27Me0 (histone H3[21-44]-biotin) in reaction buffer was added to initiate each reaction. […] ELISA (H3K27 Methylation) Assay

pIC50: −log10 of the molar value.

EED (1-441)-His protein, sequence (O75530 whole entry): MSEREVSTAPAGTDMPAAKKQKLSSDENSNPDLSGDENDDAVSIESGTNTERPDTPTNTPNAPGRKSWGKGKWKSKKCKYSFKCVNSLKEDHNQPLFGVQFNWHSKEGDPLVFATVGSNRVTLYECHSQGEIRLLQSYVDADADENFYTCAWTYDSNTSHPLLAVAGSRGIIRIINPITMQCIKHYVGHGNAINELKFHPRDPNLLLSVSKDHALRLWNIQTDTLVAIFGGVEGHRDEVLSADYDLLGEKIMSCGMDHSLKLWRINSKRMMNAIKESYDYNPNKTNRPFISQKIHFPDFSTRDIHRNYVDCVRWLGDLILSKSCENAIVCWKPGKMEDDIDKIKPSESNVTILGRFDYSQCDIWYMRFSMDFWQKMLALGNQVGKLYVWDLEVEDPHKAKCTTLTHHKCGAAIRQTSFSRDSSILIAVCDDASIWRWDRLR
wild type PRC2 (wtPRC2) complex, sequence (O75530 whole entry): as above
wild type PRC2 (wtPRC2) complex, sequence (Q15910 whole entry partner): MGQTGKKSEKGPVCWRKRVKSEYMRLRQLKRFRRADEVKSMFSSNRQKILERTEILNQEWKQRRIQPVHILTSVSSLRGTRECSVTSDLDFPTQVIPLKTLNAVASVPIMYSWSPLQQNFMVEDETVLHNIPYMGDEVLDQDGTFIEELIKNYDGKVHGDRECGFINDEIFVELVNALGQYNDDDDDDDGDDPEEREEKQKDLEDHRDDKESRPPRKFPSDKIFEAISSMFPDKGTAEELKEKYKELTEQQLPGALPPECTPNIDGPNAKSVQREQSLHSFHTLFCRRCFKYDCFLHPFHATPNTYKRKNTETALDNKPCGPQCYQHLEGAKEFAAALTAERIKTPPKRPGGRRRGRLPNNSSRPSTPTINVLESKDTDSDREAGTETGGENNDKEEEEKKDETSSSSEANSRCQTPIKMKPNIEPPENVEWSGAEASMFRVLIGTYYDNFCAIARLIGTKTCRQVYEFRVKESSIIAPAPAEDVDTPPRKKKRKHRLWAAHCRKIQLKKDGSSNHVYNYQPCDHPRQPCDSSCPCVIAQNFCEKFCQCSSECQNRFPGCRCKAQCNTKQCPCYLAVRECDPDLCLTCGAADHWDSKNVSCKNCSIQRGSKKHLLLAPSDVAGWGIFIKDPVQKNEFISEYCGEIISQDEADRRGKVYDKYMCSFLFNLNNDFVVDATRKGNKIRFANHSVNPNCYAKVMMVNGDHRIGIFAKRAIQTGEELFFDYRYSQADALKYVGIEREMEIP
wild type PRC2 (wtPRC2) complex, sequence (Q15022 whole entry partner): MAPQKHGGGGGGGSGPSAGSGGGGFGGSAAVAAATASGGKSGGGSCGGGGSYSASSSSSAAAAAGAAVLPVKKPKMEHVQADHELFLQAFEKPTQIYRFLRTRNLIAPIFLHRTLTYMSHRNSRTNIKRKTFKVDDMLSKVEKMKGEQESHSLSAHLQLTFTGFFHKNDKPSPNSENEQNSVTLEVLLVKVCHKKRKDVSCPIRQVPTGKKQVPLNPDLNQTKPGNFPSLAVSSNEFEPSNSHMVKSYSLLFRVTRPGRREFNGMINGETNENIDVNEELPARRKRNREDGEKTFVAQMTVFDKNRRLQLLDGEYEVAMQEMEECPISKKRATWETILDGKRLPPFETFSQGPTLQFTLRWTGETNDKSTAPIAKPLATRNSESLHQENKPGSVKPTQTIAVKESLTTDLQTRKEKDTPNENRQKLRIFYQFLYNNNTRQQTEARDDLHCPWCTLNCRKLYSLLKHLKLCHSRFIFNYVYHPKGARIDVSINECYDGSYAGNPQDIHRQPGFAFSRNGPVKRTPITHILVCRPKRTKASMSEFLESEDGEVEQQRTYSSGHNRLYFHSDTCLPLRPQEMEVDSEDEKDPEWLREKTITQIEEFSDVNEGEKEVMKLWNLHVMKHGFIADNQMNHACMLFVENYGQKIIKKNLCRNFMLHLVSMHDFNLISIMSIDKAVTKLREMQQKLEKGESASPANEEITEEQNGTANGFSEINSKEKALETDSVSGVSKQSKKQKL

As for `CS(=O)(=O)c1ccc(-c2cnc(NCc3cccc4c3CCO4)n3cnnc23)cc1` [Example 12, N-((2,3-dihydrobenzofuran-4-yl)methyl)-8-(4-(methylsulfonyl)phenyl)-[1,2,4]triazolo[4,3-c]pyrimidin-5-amine], the negative logarithm of the IC50 (pIC50) was 8.10 at EED (1-441)-His protein and 7.80 in test [1].

Regarding `COc1ncc(-c2cnc(NCc3c(F)ccc4c3CCO4)n3cnnc23)c(C)n1` [Example 175, N-((5-fluoro-2,3-dihydrobenzofuran-4-yl)methyl)-8-(2-methoxy-4-methylpyrimidin-5-yl)-[1,2,4]triazolo[4,3-c]pyrimidin-5-amine], the pIC50 on EED (1-441)-His protein is 8.20; in test [1], 8.04.

For the molecule `OCCN1CCN(c2ccc(-c3cnc(NCc4cccc5c4CCO5)n4cnnc34)cn2)CC1` [Example 110, 2-(4-(5-(5-(((2,3-dihydrobenzofuran-4-yl)methyl)amino)-[1,2,4]triazolo[4,3-c]pyrimidin-8-yl)pyridin-2-yl)piperazin-1-yl)ethanol], the negative-log IC50 (pIC50) on EED (1-441)-His protein was 8.03; in test [1] it was 7.82.

Turning to `Cc1cnc(C(F)(F)F)cc1-c1cnc(NCc2c(F)ccc3c2CCO3)n2cnnc12` [Example 184, N-((5-fluoro-2,3-dihydrobenzofuran-4-yl)methyl)-8-(5-methyl-2-(trifluoromethyl)pyridin-4-yl)-[1,2,4]triazolo[4,3-c]pyrimidin-5-amine], the pIC50 at EED (1-441)-His protein is 8.27; in test [1], 7.88.

For the molecule `COC(=O)N1CCN(c2ccc(-c3cnc(NCc4cccc5c4CCO5)n4cnnc34)cn2)CC1` [Example 97, methyl 4-(5-(5-(((2,3-dihydrobenzofuran-4-yl)methyl)amino)-[1,2,4]triazolo[4,3-c]pyrimidin-8-yl)pyridin-2-yl)piperazine-1-carboxylate], the pIC50 was 8.21 on EED (1-441)-His protein and 8.07 in test [1].

As to `CN1CCN(c2ccc(-c3cnc(NCc4cccc5occc45)n4cnnc34)cn2)CC1` [Example 211, N-(benzofuran-4-ylmethyl)-8-(6-(4-methylpiperazin-1-yl)pyridin-3-yl)-[1,2,4]triazolo[4,3-c]pyrimidin-5-amine], the negative logarithm of the IC50 (pIC50) is 7.49 on EED (1-441)-His protein and 7.54 in test [1].

Consider `Cc1ccc(-c2cnc(NCc3c(F)ccc4c3CCO4)n3cnnc23)cn1` [Example 57, N-((5-fluoro-2,3-dihydrobenzofuran-4-yl)methyl)-8-(6-methylpyridin-3-yl)-[1,2,4]triazolo[4,3-c]pyrimidin-5-amine], for which the pIC50 on EED (1-441)-His protein is 8.08; in test [1], 7.73.

Regarding `Fc1ccc2c(c1CNc1ncc(-c3cccnc3C(F)F)c3nncn13)CCO2` [Example 168, 8-(2-(difluoromethyl)pyridin-3-yl)-N-((5-fluoro-2,3-dihydrobenzofuran-4-yl)methyl)-[1,2,4]triazolo[4,3-c]pyrimidin-5-amine], the pIC50 was 8.34 on EED (1-441)-His protein and 7.95 in test [1].

For `CN(C)c1ccc(-c2cnc(NCc3cccc4c3CCO4)n3cnnc23)cn1` [Example 61, N-((2,3-dihydrobenzofuran-4-yl)methyl)-8-(6-(dimethylamino)pyridin-3-yl)-[1,2,4]triazolo[4,3-c]pyrimidin-5-amine], the figures for the pIC50 (at EED (1-441)-His protein; in test [1]) were 7.89 and 7.71, respectively.

Take `CN1CCN(c2ccc(-c3cnc(NCc4cccc5c4CCO5)n4cnnc34)cn2)CC1` [Example 20, N-((2,3-dihydrobenzofuran-4-yl)methyl)-8-(6-(4-methylpiperazin-1-yl)pyridin-3-yl)-[1,2,4]triazolo[4,3-c]pyrimidin-5-amine]: the negative-log IC50 (pIC50) at EED (1-441)-His protein was 7.84; in test [1], 7.77.

For `FC1(F)CCN(CCc2ccc(-c3cnc(NCc4cccc5c4CCO5)n4cnnc34)cn2)C1` [Example 100, 8-(6-(2-(3,3-difluoropyrrolidin-1-yl)ethyl)pyridin-3-yl)-N-((2,3-dihydrobenzofuran-4-yl)methyl)-[1,2,4]triazolo[4,3-c]pyrimidin-5-amine], the pIC50 is 7.85 at EED (1-441)-His protein and 7.50 in test [1].

On to `Cc1noc(C)c1-c1cnc(NCc2c(F)ccc3c2CCO3)n2cnnc12` [Example 71, 8-(3,5-dimethylisoxazol-4-yl)-N-((5-fluoro-2,3-dihydrobenzofuran-4-yl)methyl)-[1,2,4]triazolo[4,3-c]pyrimidin-5-amine], for which the figures for the pIC50 (at EED (1-441)-His protein; in test [1]) were 8.05 and 7.72, respectively.

For `CN(C)CCN(C)C(=O)c1ccc(-c2cnc(NCc3cccc4c3CCO4)n3cnnc23)cn1` [Example 102], the negative logarithm of the IC50 (pIC50) was 7.47 on EED (1-441)-His protein and 7.16 in test [1].

Take `OC1CN(c2ccc(-c3cnc(NCc4cccc5c4CCO5)n4cnnc34)cn2)C1` [Example 126, 1-(5-(5-(((2,3-dihydrobenzofuran-4-yl)methyl)amino)-[1,2,4]triazolo[4,3-c]pyrimidin-8-yl)pyridin-2-yl)azetidin-3-ol]: the values for the pIC50 (at EED (1-441)-His protein; in test [1]) were 7.89 and 7.76, respectively.

Turning to `Cc1ccncc1-c1cnc(NCc2c(F)ccc3c2CCO3)n2cnnc12` [Example 118, N-((5-fluoro-2,3-dihydrobenzofuran-4-yl)methyl)-8-(4-methylpyridin-3-yl)-[1,2,4]triazolo[4,3-c]pyrimidin-5-amine], the figures for the pIC50 (on EED (1-441)-His protein; in test [1]) were 8.00 and 7.74, respectively.

Turning to `CCOc1ncc(-c2cnc(NCc3c(F)ccc4c3CCO4)n3cnnc23)c(C)n1` [Example 226, 8-(2-ethoxy-4-methylpyrimidin-5-yl)-N-((5-fluoro-2,3-dihydrobenzofuran-4-yl)methyl)-[1,2,4]triazolo[4,3-c]pyrimidin-5-amine], the negative-log IC50 (pIC50) at EED (1-441)-His protein was 8.41; in test [1], 8.30.

As for `O=C(c1ccc(-c2cnc(NCc3c(F)ccc4c3CCO4)n3cnnc23)cn1)N1CCCC1` [Example 129, (5-(5-(((5-fluoro-2,3-dihydrobenzofuran-4-yl)methyl)amino)-[1,2,4]triazolo[4,3-c]pyrimidin-8-yl)pyridin-2-yl)(pyrrolidin-1-yl)methanone], the results for the pIC50 (on EED (1-441)-His protein; in test [1]) were 8.41 and 8.08, respectively.

For `O=C1CCCN1c1cncc(-c2cnc(NCc3cccc4c3CCO4)n3cnnc23)c1` [Example 87, 1-(5-(5-(((2,3-dihydrobenzofuran-4-yl)methyl)amino)-[1,2,4]triazolo[4,3-c]pyrimidin-8-yl)pyridin-3-yl)pyrrolidin-2-one], the values for the pIC50 (on EED (1-441)-His protein; in test [1]) were 7.38 and 7.08, respectively.

Take `CCc1ccc(-c2cnc(NCc3c(F)ccc4c3CCO4)n3cnnc23)c(C)n1` [Example 229, 8-(6-ethyl-2-methylpyridin-3-yl)-N-((5-fluoro-2,3-dihydrobenzofuran-4-yl)methyl)-[1,2,4]triazolo[4,3-c]pyrimidin-5-amine]: the figures for the pIC50 (on EED (1-441)-His protein; in test [1]) were 8.23 and 8.17, respectively.

As for `Cc1c(-c2cnc(NCc3c(F)ccc4c3CCO4)n3cnnc23)ccnc1CF` [Example 182, N-((5-fluoro-2,3-dihydrobenzofuran-4-yl)methyl)-8-(2-(fluoromethyl)-3-methylpyridin-4-yl)-[1,2,4]triazolo[4,3-c]pyrimidin-5-amine], the pIC50 at EED (1-441)-His protein is 8.51; in test [1], 8.25.

Consider `Cn1cc(-c2cnc(NCc3cccc4c3CCO4)n3cnnc23)cn1` [Example 25, N-((2,3-dihydrobenzofuran-4-yl)methyl)-8-(1-methyl-1H-pyrazol-4-yl)-[1,2,4]triazolo[4,3-c]pyrimidin-5-amine], for which the pIC50 on EED (1-441)-His protein is 7.51; in test [1], 7.35.

Consider `COc1ncccc1-c1cnc(NCc2c(F)ccc3c2CCO3)n2cnnc12` [Example 141, N-((5-fluoro-2,3-dihydrobenzofuran-4-yl)methyl)-8-(2-methoxypyridin-3-yl)-[1,2,4]triazolo[4,3-c]pyrimidin-5-amine], for which the pIC50 was 7.77 at EED (1-441)-His protein and 7.38 in test [1].

As to `O=C1CN(CCc2ccc(-c3cnc(NCc4cccc5c4CCO5)n4cnnc34)cn2)CCN1` [Example 109, 4-(2-(5-(5-(((2,3-dihydrobenzofuran-4-yl)methyl)amino)-[1,2,4]triazolo[4,3-c]pyrimidin-8-yl)pyridin-2-yl)ethyl)piperazin-2-one], the values for the negative logarithm of the IC50 (pIC50) (at EED (1-441)-His protein; in test [1]) were 8.06 and 7.86, respectively.

Take `CN(C)CCc1ccc(-c2cnc(NCc3cccc4c3CCO4)n3cnnc23)cc1` [Example 35, N-((2,3-dihydrobenzofuran-4-yl)methyl)-8-(4-(2-(dimethylamino)ethyl)phenyl)-[1,2,4]triazolo[4,3-c]pyrimidin-5-amine]: the pIC50 at EED (1-441)-His protein was 8.08; in test [1], 7.82.

As for `O=C1OCCN1c1ccc(-c2cnc(NCc3cccc4c3CCO4)n3cnnc23)cn1` [Example 117, 3-(5-(5-(((2,3-dihydrobenzofuran-4-yl)methyl)amino)-[1,2,4]triazolo[4,3-c]pyrimidin-8-yl)pyridin-2-yl)oxazolidin-2-one], the pIC50 was 7.63 at EED (1-441)-His protein and 7.53 in test [1].

For `CN(C)S(=O)(=O)c1ccc(-c2cnc(NCc3cccc4c3CCO4)n3cnnc23)cc1` [Example 15, 4-(5-(((2,3-dihydrobenzofuran-4-yl)methyl)amino)-[1,2,4]triazolo[4,3-c]pyrimidin-8-yl)-N,N-dimethylbenzenesulfonamide], the values for the negative-log IC50 (pIC50) (at EED (1-441)-His protein; in test [1]) were 7.89 and 7.69, respectively.

For the molecule `Cc1nn(C(C)C)cc1-c1cnc(NCc2cccc3c2CCO3)n2cnnc12` [Example 82, N-((2,3-dihydrobenzofuran-4-yl)methyl)-8-(1-isopropyl-3-methyl-1H-pyrazol-4-yl)-[1,2,4]triazolo[4,3-c]pyrimidin-5-amine], the results for the pIC50 (at EED (1-441)-His protein; in test [1]) were 7.78 and 7.51, respectively.

For the molecule `Cc1ncccc1-c1cnc(NCc2cccc3c2CCO3)n2cnnc12` [Example 123, N-((2,3-dihydrobenzofuran-4-yl)methyl)-8-(2-methylpyridin-3-yl)-[1,2,4]triazolo[4,3-c]pyrimidin-5-amine], the pIC50 was 7.91 at EED (1-441)-His protein and 7.63 in test [1].

One may read the pIC50 as the negative decadic logarithm of the IC50, by convention in mol/L.

Values taken from patent US9580437B2, “Triazolopyrimidine compounds and uses thereof” (Novartis AG, priority 2014, dated 2017).
